Assays:
thrombin receptors = assay: Peptide competition for [125I]-alpha-thrombin binding to ME cells; conditions: for fold higher concentration required for 30% inhibition than p508-530: [125I]-alpha-thrombin binding; for Conc. at Maximal % Inhibition / Concentration Required for 30% Inhibition / Maximal % Inhibition: [125I]-alpha-thrombin binding to ME cells; for Maximal % Inhibition: at the conc. printed below the value
Text: Thrombin peptide derivatives are believed to activate cells by binding to a high-affinity cell-surface thrombin receptor known as the non-proteolytically-activated thrombin receptor (hereinafter “NPAR”) (R. Horvat, et. al., J. Cell Sci. 108, 1155-1164, 1995). Compounds which stimulate NPAR are said to be thrombin receptor agonists. NPAR activation can be assayed based on the ability of molecules to stimulate cell proliferation when added to fibroblasts in the presence of submitogenic concentrations of thrombin or molecules that activate protein kinase C or compete with ^125I-thrombin for high affinity binding to thrombin receptors, as disclosed in U.S. Pat. Nos. 5,352,664 and 5,500,412 and in Glenn et al., J. Peptide Research 1:65 (1988).
To further identify regions of thrombin involved in high-affinity binding and generation of mitogenic signals, two peptides representing specific domains within p508-530 were tested. The first peptide represented residues 519 to 530 of the B-chain region of human prothrombin, a region of thrombin that is highly conserved among serine proteases. The second peptide represented residues 517 to 520 of prothrombin, a region of thrombin homologous to the fibronectin cell binding domain.
Both of these peptides were able to compete for 30% to 50% of the binding of [^125I]-alpha-thrombin to ME cells, but both required higher concentrations than was required with the initial peptide p508-530 (Table 1). For example, 30% inhibition of [^125I]-alpha-thrombin binding required 33- to 50-fold higher concentrations of p519-530 and p517-520 than p508-530, respectively. Thus, both of these peptides appear to interact with thrombin receptors, but at a lower affinity than p508-530. Because p517-520 is homologous to the fibronectin cell binding domain, a peptide having the sequence Arg-Gly-Ala-Ser (SEQ ID NO:13; the sequence of the fibronectin specific peptide) was also tested for its ability to compete for [^125I]-alpha-thrombin binding. […] Thus, the receptor for alpha-thrombin is not the same membrane protein that specifically interacts with fibronectin and causes the apparent growth promoting action of fibronectin.

NIL cells = conditions: increasing concentrations, quiescent NIL cells, 2 and 4 nM alpha-thrombin; FIG. 6 of U.S. Pat. No. 5,500,412; cited from earlier work

Substance | fold higher concentration required for 30% inhibition than p508-530 (thrombin receptors) [fold] | Conc. at Maximal % Inhibition (thrombin receptors) | Concentration Required for 30% Inhibition (thrombin receptors) [nM] | Maximal % Inhibition (thrombin receptors) [%] | effect on DNA synthesis (NIL cells) | competition with [125I]-alpha-thrombin for binding (thrombin receptors; at a concentration of 1.3 μM)
DACEGDSGGPFV (Thrombin peptide derivative) [p519-530] | 33 | (800 nM) | 200 | 51 | enhanced DNA synthesis over a range of concentrations | –
RGDA (Thrombin peptide fragment) [p517-520] | 50 | (2.7 μM) | 300 | 50 | inhibited DNA synthesis | –
Arg-Gly-Ala-Ser (RGAS; Fibronectin fragment) | – | – | – | – | – | did not compete

— patent publication US7919457B2, “Thrombin peptide derivative dimers” (Orthologic Corp., priority 2002, dated 2011)
